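Compound exposure: 48 hours, 5 concentrations, 96-well plates. GI50 marks 50% less growth. TGI denotes the concentration required for complete inhibition of growth.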 Bounds are passed on as bounds.

Among the test systems are 786-0 renal; HT29 colon; MOLT-4 leukemia; NCI-H23 lung; NCI-H522 lung; OVCAR-4 ovarian; UACC-257 melanoma; UO-31 renal; DU-145 prostate.
Experiment in all cases: NCI tumour cell line growth inhibition, 48 h

Regarding `CC1=C(C(=O)Nc2ccccc2C)C(c2ccccc2C)C(C(=O)Nc2ccccc2C)=C(C)N1`, the TGI with 786-0 renal is 34.5 µM; in the test on HT29 colon, 43 µM; in the test with MOLT-4 leukemia, above 10 µM; with NCI-H23 lung, 68.4 µM; in the test with NCI-H522 lung it was 29.9 µM; in the test on OVCAR-4 ovarian, 53.9 µM. Further, the values for the TGI in the test with UACC-257 melanoma and in the test with UO-31 renal were 72.6 µM and 30.2 µM, respectively.

Take `O=[N+]([O-])c1cc2c(ccc3occc32)o1`: the GI50 was 2.37 µM in the test on 786-0 renal; 1.16 µM with DU-145 prostate; 2.45 µM in the test on HT29 colon; 2.31 µM in the test on MOLT-4 leukemia; 2.69 µM in the test with NCI-H23 lung; 1.67 µM in the test on NCI-H522 lung. In addition, the GI50 in the test with OVCAR-4 ovarian was 27.2 µM; in the test on UACC-257 melanoma, 1.77 µM; with UO-31 renal, 1.99 µM. In addition, the TGI was 5 µM in the test with 786-0 renal; 9.84 µM with DU-145 prostate; 18.8 µM with HT29 colon; 28.6 µM with MOLT-4 leukemia; 15.6 µM in the test on NCI-H23 lung; 4.45 µM in the test with NCI-H522 lung. Further, the values for the TGI in the test on OVCAR-4 ovarian, with UACC-257 melanoma and in the test on UO-31 renal were above 100 µM, 3.88 µM and 7.65 µM, respectively.

In the case of `O=C(O)C1CC2CC(=O)C1C2` (centres undefined), the TGI in the test on 786-0 renal, in the test with HT29 colon, in the test with MOLT-4 leukemia, in the test with NCI-H23 lung, with NCI-H522 lung and in the test with OVCAR-4 ovarian was above 100 µM throughout. The TGI with UACC-257 melanoma and in the test with UO-31 renal was above 100 µM in each case.

`O=c1[nH]c2c(c3ccccc13)CCc1ccccc1-2`: the TGI with 786-0 renal, in the test with HT29 colon, in the test on MOLT-4 leukemia, with NCI-H23 lung, in the test with NCI-H522 lung and in the test on OVCAR-4 ovarian was above 100 µM throughout. Besides, the TGI with UACC-257 melanoma and in the test with UO-31 renal was above 100 µM in each case.

Turning to `Cc1ccc(Nc2nc(C)c(C(/C=C/c3ccc4c(c3)OCO4)=N/Nc3ccc([N+](=O)[O-])cc3[N+](=O)[O-])s2)c([N+](=O)[O-])c1`, the TGI with 786-0 renal was above 100 µM; in the test on HT29 colon, above 100 µM; in the test with MOLT-4 leukemia, above 100 µM; in the test with NCI-H23 lung, above 100 µM; with NCI-H522 lung, 37.4 µM; with OVCAR-4 ovarian, above 100 µM. Moreover, the TGI in the test on UACC-257 melanoma and with UO-31 renal was above 100 µM in each case.

Turning to `CC1CC(=O)c2c(ccc3c2C(=O)c2cccc(O)c2C3=O)C1` (centres undefined), the TGI in the test with 786-0 renal amounted to 21.2 µM; with HT29 colon it was 18.5 µM; in the test on MOLT-4 leukemia it was 9.57 µM; in the test with NCI-H23 lung it was 27.1 µM; in the test with NCI-H522 lung, 12.7 µM; with OVCAR-4 ovarian it was 25.3 µM. For the same molecule, the TGI in the test on UACC-257 melanoma worked out at 19.2 µM; in the test on UO-31 renal, 24.2 µM.

Take `Cc1cccc(N=C2NC(=O)C(CC(=O)Nc3ccccc3Cl)S2)c1` (centres undefined): the TGI in the test on 786-0 renal, in the test on HT29 colon, in the test on MOLT-4 leukemia, with NCI-H23 lung, in the test with OVCAR-4 ovarian and with UACC-257 melanoma was above 100 µM in each case. This molecule also gave a TGI in the test on UO-31 renal above 100 µM.

Consider `NC(=O)N/N=C(\CCC(=O)N(Cc1ccccc1)Cc1ccccc1)CC(=O)c1ccc(F)cc1`, for which the TGI with 786-0 renal was 87.4 µM; in the test with HT29 colon it was above 100 µM; in the test on MOLT-4 leukemia, above 100 µM; in the test with NCI-H23 lung, above 100 µM; in the test with OVCAR-4 ovarian it was above 100 µM; in the test on UACC-257 melanoma, above 100 µM. For the same molecule, the TGI with UO-31 renal is above 100 µM.

`COc1ccc(/C=N\O[Si](C)(C)C(C)(C)C)cc1O[Si](C)(C)C(C)(C)C`: the TGI with 786-0 renal was 30.8 µM; in the test with HT29 colon it was 36.2 µM; with MOLT-4 leukemia, 36.5 µM; with NCI-H23 lung, 37.1 µM; in the test on OVCAR-4 ovarian, 46.3 µM; with UACC-257 melanoma, 43.3 µM. The same molecule had a TGI in the test with UO-31 renal of 27.9 µM.

For the molecule `NNC(=S)N/N=C(/C(=O)Nc1ccc([N+](=O)[O-])cc1)c1nc2ccc([N+](=O)[O-])cc2[nH]c1=O`, the TGI with 786-0 renal, in the test on HT29 colon, in the test with MOLT-4 leukemia, in the test on NCI-H23 lung, with NCI-H522 lung and in the test on OVCAR-4 ovarian was above 100 µM in each case. In addition, the TGI in the test on UACC-257 melanoma and with UO-31 renal was above 100 µM throughout.

For `O=C(CC(=O)c1ccccc1)C(=O)NC12CC3CC(CC(C3)C1)C2`, the TGI with 786-0 renal was 99.7 µM; in the test with HT29 colon, above 100 µM; in the test on MOLT-4 leukemia, above 100 µM; with NCI-H23 lung it was above 100 µM; with NCI-H522 lung it was above 100 µM; with OVCAR-4 ovarian it was above 100 µM. The TGI in the test with UACC-257 melanoma and in the test with UO-31 renal was above 100 µM each time.

As for `O=C(CC(=O)C1CCOC1=O)C(=O)Nc1ccc(Cl)cc1` (centres undefined), the TGI in the test on 786-0 renal, in the test on HT29 colon, with NCI-H23 lung, in the test with NCI-H522 lung, in the test with OVCAR-4 ovarian and with UACC-257 melanoma was above 100 µM each time. The TGI with UO-31 renal was above 100 µM.

As for `O=C1NN=C(c2ccc([N+](=O)[O-])cc2)C1n1nc(-c2ccccc2)c2ccccc2c1=O` (centres undefined), the TGI with 786-0 renal, with HT29 colon, in the test with MOLT-4 leukemia, with NCI-H23 lung, in the test on NCI-H522 lung and with OVCAR-4 ovarian was above 100 µM each time. For the same molecule, the TGI in the test on UACC-257 melanoma and with UO-31 renal was above 100 µM throughout.

In the case of `COc1cc2c(Cc3cc(OCc4ccccc4)ccc3N)nccc2c(OC)c1OC`, the TGI in the test on 786-0 renal, in the test with HT29 colon, with MOLT-4 leukemia, in the test on NCI-H23 lung, in the test with NCI-H522 lung and in the test on UACC-257 melanoma was above 10 µM each time. In the test with UO-31 renal, this molecule had a TGI above 10 µM.

As to `COC(=O)c1nc(N)nc(C(=O)OC)c1C(=O)c1ccccc1`, the TGI in the test with 786-0 renal, with HT29 colon, with MOLT-4 leukemia, in the test on NCI-H23 lung, in the test with NCI-H522 lung and in the test on UACC-257 melanoma was above 100 µM each time. In addition, the TGI in the test with UO-31 renal was above 100 µM.

For the origin of these results see PubChem BioAssay (NCI).
